The results in this text go back to ChEMBL document CHEMBL6153025, “Multidrug-resistant bacteria quorum-sensing inhibitors: A particular focus on Pseudomonasaeruginosa” (Eur J Med Chem, 2025).

The test system of experiment [1] is Pseudomonas aeruginosa. As to the kind of experiment: Antibiofilm activity against Pseudomonas aeruginosa PAO1 assessed as inhibition of biofilm formation at 16 microg/ml incubated for 20 hrs by crystal violet staining based analysis. The format is functional. Also on record: scale not given: the % may be the effect or the level left. The following applies: dose 16 µg/ml.

Experiment [2] relates to Pseudomonas aeruginosa. As to the kind of experiment: Antivirulence activity against Pseudomonas aeruginosa PAO1 assessed as reduction in pyocyanin production at 20 ug/ml relative to control. Further details: scale not given: the % may be the effect or the level left. Format: functional. The following applies: dose 20 µg/ml.
In experiment [3] the test system is Pseudomonas aeruginosa. Description: Antivirulence activity in Pseudomonas aeruginosa PAO1 assessed as reduction in elastase production at 10 uM incubated for 24 hrs by elastin-congo red dye based absorbance assay relative to control. The format is functional. Further details: scale not given: the % may be the effect or the level left.
For experiment [4], the system named is Pseudomonas aeruginosa. As to the kind of experiment: Antibacterial activity against Pseudomonas aeruginosa PAO1 assessed as reduction in bacterial growth. The format is functional.
Experiment [5] can be described thus: Inhibition of quorum sensing system in Pseudomonas aeruginosa PAO1 expressing lasI-gfp assessed as inhibition of lasI expression at 50 ug/ml incubated for 8 hrs under shaking condition by microplate reader based analysis relative to control. The following applies: dose 50.0 µg/ml.
Experiment [6] in a line: Inhibition of quorum sensing system in Pseudomonas aeruginosa PAO1-rhlA-gfp assessed as inhibition of rhlA expression at 50 ug/ml incubated for 8 hrs by microplate reader based analysis relative to control. The following applies: dose 50.0 µg/ml.
In experiment [7] the test system is Pseudomonas aeruginosa. As to the kind of experiment: Antibacterial activity against Pseudomonas aeruginosa PAO1 assessed as reduction in bacterial growth by broth microdilution method. The format is functional, organism-based.
Experiment [8] can be described thus: Inhibition of quorum sensing system in Pseudomonas aeruginosa PAO1 expressing lasB-gfp at 16 uM relative to control.
A further experiment deals with Bacillus subtilis. Description: Antibacterial activity against Bacillus subtilis. The format is functional.
A further experiment has as its system Bacillus pumilus. As to the kind of experiment: Antibacterial activity against Bacillus pumilus. Format: functional.
The subject of experiment [9] is Staphylococcus aureus. As to the kind of experiment: Antibacterial activity against Methicillin-sensitive Staphylococcus aureus. Format: functional.
Experiment [10] deals with Staphylococcus aureus. Description: Antibacterial activity against Methicillin-resistant Staphylococcus aureus. Format: functional.
Another experiment relates to Escherichia coli. Description: Antibacterial activity against Escherichia coli. Format: functional.
Experiment [11] concerns Pseudomonas aeruginosa. Description: Antibacterial activity against Pseudomonas aeruginosa. Format: functional.
For experiment [12], the system named is Pseudomonas aeruginosa. As to the kind of experiment: Antivirulence activity against Pseudomonas aeruginosa PAO1 assessed as reduction in pyocyanin level at 10 uM relative to control. Format: functional. Further details: scale not given: the % may be the effect or the level left.
Experiment [13] relates to Pseudomonas aeruginosa. Description: Anti-virulence effect in Pseudomonas aeruginosa PAO1 assessed as inhibition of rhamnolipid production at 10 uM relative to control. The format is functional. Also on record: scale not given: the % may be the effect or the level left.
Experiment [14] has as its system Pseudomonas aeruginosa. Description: Antibiofilm activity against Pseudomonas aeruginosa PAO1 assessed as inhibition of biofilm formation incubated for 24 hrs by crystal violet staining based assay. Format: functional, organism-based. The settings on record: PAO1, 24 h.
For experiment [15], the system named is Pseudomonas aeruginosa. As to the kind of experiment: Antimicrobial activity against Pseudomonas aeruginosa assessed as reduction in microbial growth. Format: functional, organism-based.
Experiment [16] has as its system Pseudomonas aeruginosa. As to the kind of experiment: Antibiofilm activity against Pseudomonas aeruginosa assessed as reduction in biofilm formation incubated for 24 hrs relative to control. Format: functional. Also on record: scale not given: the % may be the effect or the level left.
Experiment [17] relates to Pseudomonas aeruginosa. Description: Antibacterial activity against Pseudomonas aeruginosa ATCC 27853 assessed as bacterial growth inhibition by agar diffusion assay. The format is functional.
The test system of experiment [18] is Pseudomonas aeruginosa. As to the kind of experiment: Antibacterial activity against Pseudomonas aeruginosa ATCC 27853. The format is functional, organism-based.
Experiment [19] deals with Pseudomonas aeruginosa. As to the kind of experiment: Antimicrobial activity against Pseudomonas aeruginosa PAO1 assessed as inhibition of bacterial growth measured for 18 hrs by CLSI-based broth microdilution method. The format is functional.
The subject of experiment [20] is Pseudomonas aeruginosa. Description: Antibiofilm activity against Pseudomonas aeruginosa PAO1 assessed as inhibition of biofilm formation at 1 to 100 uM incubated for 24 hrs by crystal violet staining based assay relative to control. The format is functional. Also on record: scale not given: the % may be the effect or the level left. The following applies: dose 1-100 µM.

In experiment [21] the test system is Pseudomonas aeruginosa. Description: Antibiofilm activity against Pseudomonas aeruginosa ATCC 27853 assessed as reduction in biofilm formation at 10 uM relative to control. The format is functional. Also on record: scale not given: the % may be the effect or the level left.
The nature of experiment [22]: Inhibition of quorum sensing system in Pseudomonas aeruginosa PAO1 expressing lasB-gfp.
In experiment [23] the test system is Pseudomonas aeruginosa. As to the kind of experiment: Antibacterial activity against Pseudomonas aeruginosa PAO1-L. Format: functional, organism-based.
In experiment [24] the test system is Pseudomonas aeruginosa. As to the kind of experiment: Anti-virulence activity against Pseudomonas aeruginosa PAO1-L assessed as reduction in pyocyanin production at 10 uM incubated for 24 hrs by absorbance based analysis relative to control. The format is functional. Also on record: scale not given: the % may be the effect or the level left.
The subject of experiment [25] is Pseudomonas aeruginosa. As to the kind of experiment: Antibiofilm activity against Pseudomonas aeruginosa ATCC 27853 assessed as reduction in biofilm biomass at 16 ug/ml relative to control. The following applies: dose 16 µg/ml. Also on record: scale not given: the % may be the effect or the level left. The format is functional.
Experiment [26] relates to Pseudomonas aeruginosa. Description: Antibiofilm activity against Pseudomonas aeruginosa ATCC 15442 assessed as inhibition of biofilm formation at 16 ug/ml relative to control. Further details: scale not given: the % may be the effect or the level left. The format is functional. The settings on record: dose 16 µg/ml.
In experiment [27] the test system is Pseudomonas aeruginosa. As to the kind of experiment: Antibacterial activity against Pseudomonas aeruginosa ATCC 15442 assessed as reduction in bacterial cell growth incubated for 18 hrs by two fold serial microdilution method. Format: functional.
Experiment [28] deals with Pseudomonas aeruginosa. Description: Antivirulence activity in Pseudomonas aeruginosa PAO1 assessed as reduction in pyocyanin production at 10 uM incubated for 24 hrs by absorbance based analysis relative to control. Format: functional. Also on record: scale not given: the % may be the effect or the level left.
For experiment [29], the system named is Pseudomonas aeruginosa. Description: Anti-virulence activity in Pseudomonas aeruginosa PAO1 assessed as reduction in pyoverdine production at 160 ug/ml by absorbance based analysis relative to control. The format is functional. The settings on record: dose 160 µg/ml. Further details: scale not given: the % may be the effect or the level left.

Each structure is given as a SMILES string. ≈ marks a conversion by molar mass, not a printed value.

In the case of `Cc1ccc(CCC(=O)NC2CCOC2=O)cc1` (stereo unspecified), the values for the Activity in the experiment on Pseudomonas aeruginosa [1], in the experiment on Pseudomonas aeruginosa [2] and in the experiment with Pseudomonas aeruginosa [3] were 52%, 66% and 52%, respectively. In addition, in the experiment with Pseudomonas aeruginosa [4], the MIC turned out to be 10 µM (≈ 2.47 µg/mL). In addition, the inhibition in experiment [5] came to 82%; in experiment [6] it was 91%.
In the case of `O=C1O/C(=C\Br)C=C1Br`, the IC50 in the experiment with Pseudomonas aeruginosa [7] came to 17.4 µM.
`CCCCC/C=C\C/C=C\CCCCCCCC(=O)O`: the inhibition in experiment [8] was 41%.
For `COc1ccc(OCCCCCCCC(=O)NNC(=O)Cn2c(=O)oc3ncccc32)cc1`, the MIC in the experiment on Bacillus subtilis, in the experiment on Bacillus pumilus, against Staphylococcus aureus [9], against Staphylococcus aureus [10], in the experiment with Escherichia coli and in the experiment with Pseudomonas aeruginosa [11] was greater than 512 µg/mL each time. Further, the Activity in the experiment with Pseudomonas aeruginosa [12] is given as 53.1%; with Pseudomonas aeruginosa [13], 6.34%.
With `CCn1ccnc1`, the IC50 with Pseudomonas aeruginosa [14] came to 0.4 µM.
`O=C1c2ccc(NS(=O)(=O)c3ccc(Cl)cc3)cc2OC2C=C(O)C=C(O)C12` (stereo unspecified): in the experiment with Pseudomonas aeruginosa [15], the concentration for half-maximal inhibition (IC50) is 100 µM. Moreover, the Activity in the experiment with Pseudomonas aeruginosa [16] came to 50%.
For the molecule `O=C(CCc1ccc(Br)cc1)NC1CCOC1=O` (stereo unspecified), the figures for the Activity with Pseudomonas aeruginosa [1], in the experiment with Pseudomonas aeruginosa [2] and with Pseudomonas aeruginosa [3] were 48%, 19% and 44%, respectively. Also, the minimal inhibitory concentration (MIC) in the experiment on Pseudomonas aeruginosa [4] came out at 10 µM (≈ 3.12 µg/mL). Moreover, the inhibition in experiment [5] came out at 87%; in [6], 80%.
For the molecule `O=C(CSc1nc2ccccc2s1)c1ccc2c(c1)OCCO2`, the MIC in the experiment with Pseudomonas aeruginosa [17] is greater than 512 µg/mL. In the experiment with Pseudomonas aeruginosa [18], this molecule gave an IC50 of 115 µg/mL (≈ 335 µM).
Consider `O=c1cc(-c2ccc(O)cc2)oc2cc(O)cc(O)c12` [APIGENIN], for which, in the experiment on Pseudomonas aeruginosa [19], the minimal inhibitory concentration (MIC) turned out to be 0.48 µg/mL (≈ 1.78 µM).
For `O=C(CN[C@H]1CCOC1=O)Nc1ccc(C/C=C/c2ccc(Cl)c(Cl)c2)cc1`, the MIC in the experiment with Pseudomonas aeruginosa [7] was determined as 5 µM (≈ 2.1 µg/mL).
As to `Oc1ccc([C@H]2Oc3cc(O[C@H]4OC[C@@H](O)[C@@H](O)[C@@H]4O)cc(O)c3C[C@H]2O)cc1O`, the Activity in the experiment on Pseudomonas aeruginosa [20] was 66%.
Regarding `COc1ccc(-c2coc3cc(O)cc(O)c3c2=O)cc1` [BIOCHANIN], the MIC in the experiment on Pseudomonas aeruginosa [19] came out at 0.48 µg/mL (≈ 1.69 µM).
In the case of `C=CCSSc1nc2ccccc2c(=O)[nH]1`, in the experiment on Pseudomonas aeruginosa [21], the Activity was determined as 46%.
On to `N#CCc1ccc(OC[C@H](O)Cn2cnc3ccc(Cl)cc3c2=O)cc1`, for which the IC50 in experiment [22] came out at 1 µM; with Pseudomonas aeruginosa [23] it was 4.3 µM. For the same molecule, the Activity with Pseudomonas aeruginosa [24] came out at 80%; with Pseudomonas aeruginosa [21] it was 52%.
Consider `O=C(O)CCc1ccc(O)c(O)c1` [DIHYDROCAFFEIC ACID], for which the Activity in the experiment on Pseudomonas aeruginosa [25] came to 19.82%.
On to `O=c1c(-c2ccc(O)cc2)coc2cc(O)ccc12` [DAIDZEIN], for which, in the experiment on Pseudomonas aeruginosa [19], the MIC was 45 µg/mL (≈ 177 µM).
For the molecule `O=C(O)/C=C/c1ccc(O)c(O)c1` [CAFFEIC ACID], the Activity in the experiment on Pseudomonas aeruginosa [25] came out at 33%.
Consider `Cc1nc2cccc(Br)c2c(=O)n1/N=C/C=C/c1ccccc1`, for which the Activity in the experiment on Pseudomonas aeruginosa [26] was found to be 58%. For the same molecule, in the experiment on Pseudomonas aeruginosa [27], the MIC is greater than 50 µM.
As for `O=C(CN[C@H]1CCOC1=O)Nc1ccc(C/C=C/c2ccccc2)cc1`, in the experiment on Pseudomonas aeruginosa [7], the MIC was 5 µM (≈ 1.75 µg/mL).
For `CCCCCCCCn1ccnc1`, the IC50 with Pseudomonas aeruginosa [14] came to 0.74 µM. Besides, the Activity in the experiment with Pseudomonas aeruginosa [28] is reported as 97.37%; with Pseudomonas aeruginosa [29], 88%.
Take `COc1ccc(C(=O)CSc2nc3ccccc3s2)c(OC)c1`: the MIC in the experiment on Pseudomonas aeruginosa [17] is greater than 512 µg/mL. In the experiment with Pseudomonas aeruginosa [18], this molecule yielded an IC50 of 45.5 µg/mL (≈ 132 µM).
On to `Nc1ccc(S(=O)(=O)Nc2ccc3c(c2)OC2C=C(O)C=C(O)C2C3=O)cc1` (stereo unspecified), for which the IC50 in the experiment on Pseudomonas aeruginosa [15] is 100 µM. Moreover, in the experiment on Pseudomonas aeruginosa [16], the Activity was 50%.
With `O=C1c2ccc(NS(=O)(=O)c3ccc(F)cc3)cc2OC2C=C(O)C=C(O)C12` (stereo unspecified), the IC50 with Pseudomonas aeruginosa [15] worked out at 100 µM. Also, the Activity in the experiment with Pseudomonas aeruginosa [16] was 78%.
